What was measured:
[1] = molecular target: T1, C-X-C chemokine receptor type 2 (Homo sapiens, UniProt P25025); assay type: cell membranes, Membrane; conditions: cho-k1; also: in other assays of this panel Not Active means under 50% inhibition at 10 µM
T1 sequence (P25025 whole entry): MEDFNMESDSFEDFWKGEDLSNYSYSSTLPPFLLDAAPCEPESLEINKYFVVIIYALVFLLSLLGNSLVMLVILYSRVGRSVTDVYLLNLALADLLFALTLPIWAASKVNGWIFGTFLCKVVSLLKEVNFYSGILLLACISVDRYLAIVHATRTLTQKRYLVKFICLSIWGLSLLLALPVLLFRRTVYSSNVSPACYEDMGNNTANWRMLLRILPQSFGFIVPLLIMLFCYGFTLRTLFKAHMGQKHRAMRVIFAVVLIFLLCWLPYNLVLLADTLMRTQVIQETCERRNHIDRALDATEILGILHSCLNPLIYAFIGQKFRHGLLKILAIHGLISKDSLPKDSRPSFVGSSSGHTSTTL

[2] = molecular target: T2, D(4) dopamine receptor (Homo sapiens, UniProt P21917); assay: DRUGMATRIX: Dopamine D4.2 radioligand binding (ligand: [3H] Spiperone); assay type: cell membranes, CHO-K1, Membrane; conditions: cho-k1; Not Active = under 50% inhibition at 10 µM
T2 sequence (P21917 whole entry): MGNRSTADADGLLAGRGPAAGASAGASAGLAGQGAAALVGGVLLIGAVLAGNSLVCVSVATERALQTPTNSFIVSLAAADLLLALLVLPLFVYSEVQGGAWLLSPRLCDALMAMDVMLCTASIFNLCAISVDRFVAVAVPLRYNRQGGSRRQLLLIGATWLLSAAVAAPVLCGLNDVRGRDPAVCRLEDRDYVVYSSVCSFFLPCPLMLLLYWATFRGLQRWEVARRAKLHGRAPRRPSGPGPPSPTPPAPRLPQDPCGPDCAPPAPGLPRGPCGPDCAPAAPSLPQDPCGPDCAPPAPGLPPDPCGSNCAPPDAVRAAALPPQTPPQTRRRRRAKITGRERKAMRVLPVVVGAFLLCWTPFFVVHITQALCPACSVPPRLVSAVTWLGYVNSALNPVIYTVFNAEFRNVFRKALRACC

[3] = DRUGMATRIX: Glutamate, Kainate radioligand binding (ligand: [3H] Kainic acid); assay type: cell membranes, Rattus norvegicus, Wistar, Brain, Membrane; conditions: Not Active = under 50% inhibition at 10 µM
[4] = DRUGMATRIX: Glutamate, NMDA, Phencyclidine radioligand binding (ligand: [3H] TCP); assay type: cell membranes, Rattus norvegicus, Wistar, Cerebral cortex, Membrane; conditions: Not Active = under 50% inhibition at 10 µM
[5] = molecular target: T3, Androgen receptor (Rattus norvegicus, UniProt P15207); also: in other assays of this panel Not Active means under 50% inhibition at 10 µM
T3 sequence (P15207 whole entry): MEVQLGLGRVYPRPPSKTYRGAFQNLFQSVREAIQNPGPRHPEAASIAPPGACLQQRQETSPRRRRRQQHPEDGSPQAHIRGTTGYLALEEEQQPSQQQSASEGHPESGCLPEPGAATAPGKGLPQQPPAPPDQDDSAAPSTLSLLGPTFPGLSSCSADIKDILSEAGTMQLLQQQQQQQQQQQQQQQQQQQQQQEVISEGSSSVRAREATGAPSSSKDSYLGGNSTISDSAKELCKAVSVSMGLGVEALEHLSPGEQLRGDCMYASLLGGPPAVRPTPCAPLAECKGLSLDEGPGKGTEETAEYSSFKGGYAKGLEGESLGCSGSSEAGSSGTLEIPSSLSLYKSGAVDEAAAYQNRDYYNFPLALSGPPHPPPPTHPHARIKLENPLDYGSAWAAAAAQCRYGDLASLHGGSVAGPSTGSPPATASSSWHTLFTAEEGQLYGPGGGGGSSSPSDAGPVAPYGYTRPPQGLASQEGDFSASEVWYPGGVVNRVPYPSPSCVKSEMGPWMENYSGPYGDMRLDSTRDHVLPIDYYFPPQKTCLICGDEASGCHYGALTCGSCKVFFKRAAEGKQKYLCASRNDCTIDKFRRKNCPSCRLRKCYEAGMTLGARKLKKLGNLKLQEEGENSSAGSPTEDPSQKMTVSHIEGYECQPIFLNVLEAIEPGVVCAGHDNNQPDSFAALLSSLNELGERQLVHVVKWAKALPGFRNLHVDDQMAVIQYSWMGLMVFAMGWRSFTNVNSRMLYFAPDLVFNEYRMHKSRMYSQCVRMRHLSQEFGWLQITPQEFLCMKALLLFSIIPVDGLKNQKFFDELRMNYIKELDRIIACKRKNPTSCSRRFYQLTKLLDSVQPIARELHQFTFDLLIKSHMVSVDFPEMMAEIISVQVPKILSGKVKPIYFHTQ

[6] = molecular target: Cytochrome P450 3A4 (Homo sapiens, UniProt P08684); conditions: bti-tn-5b1-4; also: in other assays of this panel Not Active means under 50% inhibition at 10 µM
[7] = molecular target: T4, Estrogen receptor (Homo sapiens, UniProt P03372); conditions: sf9; also: in other assays of this panel Not Active means under 50% inhibition at 10 µM
T4 sequence (P03372 whole entry): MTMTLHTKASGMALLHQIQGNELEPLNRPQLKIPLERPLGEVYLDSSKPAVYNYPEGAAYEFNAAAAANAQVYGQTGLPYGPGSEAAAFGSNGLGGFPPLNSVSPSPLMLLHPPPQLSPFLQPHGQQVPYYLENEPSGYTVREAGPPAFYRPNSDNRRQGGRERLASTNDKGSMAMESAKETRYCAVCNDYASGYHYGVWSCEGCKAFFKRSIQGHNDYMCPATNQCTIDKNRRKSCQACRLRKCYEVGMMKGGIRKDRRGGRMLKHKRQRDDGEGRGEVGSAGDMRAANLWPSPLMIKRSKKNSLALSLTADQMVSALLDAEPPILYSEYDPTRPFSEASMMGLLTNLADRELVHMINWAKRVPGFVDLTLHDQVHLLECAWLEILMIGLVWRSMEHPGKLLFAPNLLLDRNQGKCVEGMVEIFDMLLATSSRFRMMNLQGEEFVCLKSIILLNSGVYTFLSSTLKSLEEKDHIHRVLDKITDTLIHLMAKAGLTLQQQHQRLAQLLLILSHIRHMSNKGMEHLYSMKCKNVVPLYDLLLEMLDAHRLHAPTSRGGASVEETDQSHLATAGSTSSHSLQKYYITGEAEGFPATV

Cytochrome P450 3A4, sequence (P08684 whole entry): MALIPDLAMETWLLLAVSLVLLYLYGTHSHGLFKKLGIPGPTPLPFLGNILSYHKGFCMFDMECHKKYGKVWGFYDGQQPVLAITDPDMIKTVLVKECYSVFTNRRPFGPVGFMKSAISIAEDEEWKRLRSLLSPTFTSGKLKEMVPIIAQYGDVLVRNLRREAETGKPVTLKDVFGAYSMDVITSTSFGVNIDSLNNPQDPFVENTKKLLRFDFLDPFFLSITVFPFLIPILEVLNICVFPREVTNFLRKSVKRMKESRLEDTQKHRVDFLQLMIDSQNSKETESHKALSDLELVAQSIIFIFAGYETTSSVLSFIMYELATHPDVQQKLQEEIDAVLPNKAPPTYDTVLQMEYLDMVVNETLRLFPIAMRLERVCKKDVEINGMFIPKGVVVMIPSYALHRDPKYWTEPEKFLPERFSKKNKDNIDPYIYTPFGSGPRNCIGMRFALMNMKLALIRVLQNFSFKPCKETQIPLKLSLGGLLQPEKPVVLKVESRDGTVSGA

N#CC(C#N)=Cc1ccc(O)c(O)c1 [TYRPHOSTIN 23]
Not Active: IC50 [1] | IC50 [2] | IC50 [3] | Ki [3] | IC50 [4] | Ki [4] | IC50 [5] | IC50 [6] | Ki [6] | IC50 [7]

CC[C@]1(O)C[C@H]2CN(CCc3c([nH]c4ccccc34)[C@@](C(=O)OC)(c3cc4c(cc3OC)N(C=O)[C@H]3[C@@](O)(C(=O)OC)[C@H](OC(C)=O)[C@]5(CC)C=CCN6CC[C@]43[C@@H]65)C2)C1 [VINCRISTINE]
Not Active: IC50 [1] | IC50 [2] | IC50 [3] | Ki [3] | IC50 [4] | Ki [4] | IC50 [5] | IC50 [6] | Ki [6] | IC50 [7]

SODIUM NITROPRUSSIDE
Not Active: IC50 [1] | Ki [1] | IC50 [2] | Ki [2] | IC50 [3] | Ki [3] | IC50 [4] | Ki [4] | IC50 [5] | Ki [5] | IC50 [6] | Ki [6] | IC50 [7] | Ki [7]
